These results are taken from US20250115600A1, “COVALENT MODIFIERS OF AKT1 AND USES THEREOF” (Terremoto Biosciences, Inc., priority 2022, published 2025).

Experiment in all cases: Live cell target engagement (NanoBRET) in HEK293 cells
Assay type in all cases: cell-based
For orientation: In BRET a luciferase serves as donor, and the signal depends on an acceptor being close.

The target of experiment [1] is AKT1 WT (Homo sapiens (Human), UniProt P31749). The conditions noted are these: HEK293, 2 hours at 37° C.
Experiment [2] deals with AKT2 (Homo sapiens (Human), UniProt P31751). The conditions noted are these: HEK293, 2 hours at 37° C.
For experiment [3], the target named is AKT1 E17K (Homo sapiens (Human), UniProt P31749, E17K). The conditions noted are these: for IC50: HEK293, 2 hours at 37° C.
Sequence of AKT1 E17K (P31749 whole entry E17K): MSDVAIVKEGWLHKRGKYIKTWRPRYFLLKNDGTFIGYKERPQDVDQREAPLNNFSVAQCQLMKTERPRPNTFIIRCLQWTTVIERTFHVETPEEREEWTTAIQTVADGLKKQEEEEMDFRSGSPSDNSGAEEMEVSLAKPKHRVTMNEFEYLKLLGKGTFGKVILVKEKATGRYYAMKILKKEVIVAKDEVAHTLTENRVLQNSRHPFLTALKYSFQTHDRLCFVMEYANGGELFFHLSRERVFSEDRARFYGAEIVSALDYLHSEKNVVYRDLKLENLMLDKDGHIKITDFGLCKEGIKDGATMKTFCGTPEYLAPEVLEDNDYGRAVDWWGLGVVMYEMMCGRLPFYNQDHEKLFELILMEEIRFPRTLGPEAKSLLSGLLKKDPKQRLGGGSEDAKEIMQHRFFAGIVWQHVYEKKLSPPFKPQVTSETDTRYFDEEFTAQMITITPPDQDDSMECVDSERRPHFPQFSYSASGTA

Sequence of AKT2 (P31751 whole entry): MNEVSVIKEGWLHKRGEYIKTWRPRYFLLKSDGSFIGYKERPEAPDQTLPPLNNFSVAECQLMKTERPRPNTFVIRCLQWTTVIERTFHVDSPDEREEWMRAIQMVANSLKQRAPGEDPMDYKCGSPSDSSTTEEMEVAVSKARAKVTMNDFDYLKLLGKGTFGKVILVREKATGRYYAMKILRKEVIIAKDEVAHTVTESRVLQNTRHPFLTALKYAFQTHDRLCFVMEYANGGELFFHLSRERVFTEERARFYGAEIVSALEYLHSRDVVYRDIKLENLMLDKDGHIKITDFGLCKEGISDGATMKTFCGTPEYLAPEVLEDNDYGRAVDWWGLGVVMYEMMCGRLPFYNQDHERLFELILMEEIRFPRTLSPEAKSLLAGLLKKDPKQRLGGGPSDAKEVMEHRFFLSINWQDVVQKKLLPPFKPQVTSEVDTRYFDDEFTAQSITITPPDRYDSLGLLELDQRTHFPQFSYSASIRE
Sequence of AKT1 WT (P31749 whole entry): as the sequence (P31749 whole entry E17K) above, with K17E counted along it

Consider `Nc1ncccc1-c1nc2ccc(-c3cccnc3)nc2n1-c1ccc(CNCCc2ccc(C=O)c(O)c2F)cc1` [Compound 88, 4-(2-((4-(2-(2-aminopyridin-3-yl)-5-(pyridin-3-yl)-3H-imidazo[4,5-b]pyridin-3-yl)benzyl)amino)ethyl)-3-fluoro-2-hydroxybenzaldehyde], for which the half-inhibitory concentration (IC50) in experiment [1] was under 100 nM; in experiment [2], 100 to 500 nM; in experiment [3], under 100 nM. For the same compound, in experiment [3], the “AKT1 E17K IC50: Selectivity vs AKT1 WT” value was determined as 3.9. For the same compound, the “AKT1 E17K IC50: Selectivity vs AKT2” value in experiment [3] is 55.
Regarding `Nc1ncccc1-c1nc2ccc(-c3ccccc3)nc2n1-c1ccc(N2CC(NCc3ccc(C=O)c(O)c3)C2)cc1` [Compound 38, 4-(((1-(4-(2-(2-aminopyridin-3-yl)-5-phenyl-3H-imidazo[4,5-b]pyridin-3-yl)phenyl)azetidin-3-yl)amino)methyl)-2-hydroxybenzaldehyde], the concentration for half-maximal inhibition (IC50) in experiment [1] was in the range of 100 to 500 nM. In experiment [2], this compound gave an IC50 of over 500 nM. Besides, in experiment [3], the “AKT1 E17K IC50: Selectivity vs AKT1 WT” value worked out at 1.5, the “AKT1 E17K IC50: Selectivity vs AKT2” value is on record as 15 and the 50% inhibitory concentration (IC50) fell in the range of 100 to 500 nM.
In experiment [1], `Nc1ncccc1-c1nc2ccc(C3CC3)nc2n1-c1ccc(CNC(=O)c2ccc(O)c(C=O)c2)cc1` [Compound 27, N-({4-[2-(2-aminopyridin-3-yl)-5-cyclopropylimidazo[4,5-b]pyridin-3-yl]phenyl}methyl)-3-formyl-4-hydroxybenzamide] yielded a 50% inhibitory concentration (IC50) of 100 to 500 nM. Also, in experiment [2], the IC50 is over 500 nM. In addition, in experiment [3], the “AKT1 E17K IC50: Selectivity vs AKT1 WT” value is 3.8, the “AKT1 E17K IC50: Selectivity vs AKT2” value is on record as 110 and the half-inhibitory concentration (IC50) was under 100 nM.
In the same order, the values of `Nc1ncccc1-c1nc2ccc(-c3ccccc3)nc2n1-c1ccc(NC(=O)Cc2ccc(O)c(C=O)c2)cc1` [Compound 28, N-{4-[2-(2-aminopyridin-3-yl)-5-phenylimidazo[4,5-b]pyridin-3-yl]phenyl}-2-(3-formyl-4-hydroxyphenyl)acetamide] are under 100 nM, 100 to 500 nM, 1.3, 17 and under 100 nM.
Take `Nc1ncccc1-c1nc2ccc(-c3ccccc3)nc2n1-c1ccc(CNC(=O)C(F)c2ccc(C=O)c(O)c2)cc1` (centres unmarked) [Compound 65, N-({4-[2-(2-aminopyridin-3-yl)-5-phenylimidazo[4,5-b]pyridin-3-yl]phenyl}methyl)-2-fluoro-2-(4-formyl-3-hydroxyphenyl)acetamide]: the IC50 in experiment [1] is under 100 nM; in experiment [2] it was 100 to 500 nM; in experiment [3], under 100 nM. The “AKT1 E17K IC50: Selectivity vs AKT1 WT” value in experiment [3] came to 1.2. In addition, in experiment [3], the “AKT1 E17K IC50: Selectivity vs AKT2” value turned out to be 37.
Regarding `Nc1ncccc1-c1nc2cccnc2n1-c1ccc(CNC(=O)c2cc(C=O)c(O)cn2)cc1` [Compound 45, N-(4-(2-(2-aminopyridin-3-yl)-3H-imidazo[4,5-b]pyridin-3-yl)benzyl)-4-formyl-5-hydroxypicolinamide], the half-inhibitory concentration (IC50) in experiment [1] was over 500 nM. For the same compound, the half-inhibitory concentration (IC50) in experiment [2] was over 500 nM. Besides, in experiment [3], the “AKT1 E17K IC50: Selectivity vs AKT1 WT” value is 2.7, the “AKT1 E17K IC50: Selectivity vs AKT2” value is recorded as over 7.7 and the IC50 was over 500 nM.
`Nc1ncccc1-c1nc2ccc(-c3cccnc3)nc2n1-c1ccc(CNC(=O)Cc2ccc(C=O)c(O)c2)cc1` [Compound 68, N-(4-(2-(2-aminopyridin-3-yl)-5-(pyridin-3-yl)-3H-imidazo[4,5-b]pyridin-3-yl)benzyl)-2-(4-formyl-3-hydroxyphenyl)acetamide] returned an IC50 in experiment [1] of under 100 nM. This compound also came in with a half-inhibitory concentration (IC50) in experiment [2] of over 500 nM. Also, in experiment [3], the “AKT1 E17K IC50: Selectivity vs AKT1 WT” value stood at 4, the “AKT1 E17K IC50: Selectivity vs AKT2” value worked out at 150 and the 50% inhibitory concentration (IC50) is under 100 nM.
As for `Nc1ncccc1-c1nc2ccc(-c3ccccc3)nc2n1-c1ccc(CNCCCc2ccc(O)c(C=O)c2)cc1` [Compound 129, 5-(3-((4-(2-(2-aminopyridin-3-yl)-5-phenyl-3H-imidazo[4,5-b]pyridin-3-yl)benzyl)amino)propyl)-2-hydroxybenzaldehyde], the IC50 in experiment [1], in experiment [2] and in experiment [3] was under 100 nM in each case. Further, the “AKT1 E17K IC50: Selectivity vs AKT1 WT” value in experiment [3] is given as 0.51. Further, in experiment [3], the “AKT1 E17K IC50: Selectivity vs AKT2” value was 2.5.
`Nc1ncccc1-c1nc2ccc(-c3cccc(N4CCOCC4)c3)nc2n1-c1ccc(CNCCc2ccc(C=O)c(O)c2)cc1` [Compound 108, 4-(2-((4-(2-(2-aminopyridin-3-yl)-5-(3-morpholinophenyl)-3H-imidazo[4,5-b]pyridin-3-yl)benzyl)amino)ethyl)-2-hydroxybenzaldehyde] registered an IC50 in experiment [1] of under 100 nM. The compound also returned a 50% inhibitory concentration (IC50) in experiment [2] of under 100 nM. Further, in experiment [3], the “AKT1 E17K IC50: Selectivity vs AKT1 WT” value was found to be 1.2, the “AKT1 E17K IC50: Selectivity vs AKT2” value stood at 2.1 and the half-maximal inhibitory concentration (IC50) was under 100 nM.
In the case of `Nc1ncccc1-c1nc2ccc(OC3CC3)nc2n1-c1ccc(CNC(=O)Cc2ccc(C=O)c(O)c2)cc1` [Example 10, N-({4-[2-(2-aminopyridin-3-yl)-5-cyclopropoxyimidazo[4,5-b]pyridin-3-yl]phenyl}methyl)-2-(4-formyl-3-hydroxyphenyl)acetamide], in experiment [1], the half-inhibitory concentration (IC50) is under 100 nM. The compound further came in with a half-maximal inhibitory concentration (IC50) in experiment [2] of over 500 nM. In addition, in experiment [3], the “AKT1 E17K IC50: Selectivity vs AKT1 WT” value was determined as 3.9, the “AKT1 E17K IC50: Selectivity vs AKT2” value turned out to be 160 and the half-inhibitory concentration (IC50) is under 100 nM.
As for `CC(NC(=O)Cc1ccc(O)c(C=O)c1)c1ccc(-n2c(-c3cccnc3N)nc3ccc(-c4ccccc4)nc32)cc1` (centres unmarked) [Compound 115, N-(1-(4-(2-(2-aminopyridin-3-yl)-5-phenyl-3H-imidazo[4,5-b]pyridin-3-yl)phenyl)ethyl)-2-(3-formyl-4-hydroxyphenyl)acetamide], the IC50 is 100 to 500 nM in experiment [1], 100 to 500 nM in experiment [2] and under 100 nM in experiment [3]. Moreover, the “AKT1 E17K IC50: Selectivity vs AKT1 WT” value in experiment [3] was determined as 1.2. For the same compound, the “AKT1 E17K IC50: Selectivity vs AKT2” value in experiment [3] worked out at 4.9.
`Nc1ncccc1-c1nc2ccc(-c3cccc(N4CCOCC4)c3)nc2n1-c1ccc(CNC(=O)Cc2ccc(C=O)c(O)c2)cc1` [Compound 55, N-({4-[2-(2-aminopyridin-3-yl)-5-[3-(morpholin-4-yl)phenyl]imidazo[4,5-b]pyridin-3-yl]phenyl}methyl)-2-(4-formyl-3-hydroxyphenyl)acetamide] had an IC50 in experiment [1] of under 100 nM. In addition, the half-maximal inhibitory concentration (IC50) in experiment [2] is under 100 nM. Also, in experiment [3], the “AKT1 E17K IC50: Selectivity vs AKT1 WT” value is listed as 0.93, the “AKT1 E17K IC50: Selectivity vs AKT2” value is reported as 6.8 and the IC50 is under 100 nM.
Regarding `Cn1cc(C(=O)Nc2cc(CC(=O)NCc3ccc(-n4c(-c5cccnc5N)nc5cccnc54)cc3)ccc2C=O)cn1` [Compound 44, N-(5-(2-((4-(2-(2-aminopyridin-3-yl)-3H-imidazo[4,5-b]pyridin-3-yl)benzyl)amino)-2-oxoethyl)-2-formylphenyl)-1-methyl-1H-pyrazole-4-carboxamide], the 50% inhibitory concentration (IC50) in experiment [1] was over 500 nM. The compound further showed a concentration for half-maximal inhibition (IC50) in experiment [2] of over 500 nM. For the same compound, in experiment [3], the “AKT1 E17K IC50: Selectivity vs AKT1 WT” value is on record as 3.6, the “AKT1 E17K IC50: Selectivity vs AKT2” value was found to be 34 and the IC50 lay within 100 to 500 nM.
On to `Nc1ncccc1-c1nc2ccc(-c3cccc(N4CCOCC4)c3)nc2n1-c1ccc(CNC(=O)Cc2ccc(C=O)c(O)c2Cl)cc1` [Example 13, N-({4-[2-(2-aminopyridin-3-yl)-5-[3-(morpholin-4-yl)phenyl]imidazo[4,5-b]pyridin-3-yl]phenyl}methyl)-2-(2-chloro-4-formyl-3-hydroxyphenyl)acetamide], for which the 50% inhibitory concentration (IC50) in experiment [1] was under 100 nM. The same compound had an IC50 in experiment [2] of under 100 nM. Also, in experiment [3], the “AKT1 E17K IC50: Selectivity vs AKT1 WT” value is listed as 1.2, the “AKT1 E17K IC50: Selectivity vs AKT2” value is recorded as 3 and the concentration for half-maximal inhibition (IC50) was under 100 nM.
`CC(C)(O)C#Cc1ccc2nc(-c3cccnc3N)n(-c3ccc(CNC(=O)Cc4ccc(C=O)c(O)c4)cc3)c2n1` [Compound 51, N-(4-(2-(2-aminopyridin-3-yl)-5-(3-hydroxy-3-methylbut-1-yn-1-yl)-3H-imidazo[4,5-b]pyridin-3-yl)benzyl)-2-(4-formyl-3-hydroxyphenyl)acetamide] yielded a concentration for half-maximal inhibition (IC50) in experiment [1] of 100 to 500 nM. This compound had an IC50 in experiment [2] of over 500 nM. In addition, in experiment [3], the “AKT1 E17K IC50: Selectivity vs AKT1 WT” value amounted to 3.8, the “AKT1 E17K IC50: Selectivity vs AKT2” value amounted to 90 and the IC50 was under 100 nM.
`Nc1ncccc1-c1nc2cccnc2n1-c1ccc(CNC(=O)c2ccc(O)c(C=O)c2)cc1` [Compound 83, N-({4-[2-(2-aminopyridin-3-yl)imidazo[4,5-b]pyridin-3-yl]phenyl}methyl)-3-formyl-4-hydroxybenzamide]: the results for the half-inhibitory concentration (IC50) in experiment [1], in experiment [2] and in experiment [3] were 100 to 500 nM, over 500 nM and under 100 nM, respectively. Besides, in experiment [3], the “AKT1 E17K IC50: Selectivity vs AKT1 WT” value is recorded as 10. Further, the “AKT1 E17K IC50: Selectivity vs AKT2” value in experiment [3] worked out at 99.
On to `CC(C(=O)NCc1ccc(-n2c(-c3cccnc3N)nc3ccc(-c4ccccc4)nc32)cc1)c1ccc(C=O)c(O)c1` (centres unmarked) [Compound 37], for which the IC50 is under 100 nM in experiment [1], over 500 nM in experiment [2] and under 100 nM in experiment [3]. The “AKT1 E17K IC50: Selectivity vs AKT1 WT” value in experiment [3] worked out at 11. Further, the “AKT1 E17K IC50: Selectivity vs AKT2” value in experiment [3] was determined as 180.
As for `Nc1ncccc1-c1nc2ccc(-c3ccncc3)nc2n1-c1ccc(CNCCc2ccc(C=O)c(O)c2)cc1` [Compound 119, 4-{2-[({4-[2-(2-aminopyridin-3-yl)-5-(pyridin-4-yl)imidazo[4,5-b]pyridin-3-yl]phenyl}methyl)amino]ethyl}-2-hydroxybenzaldehyde], in experiment [1], the concentration for half-maximal inhibition (IC50) was 100 to 500 nM. Moreover, in experiment [2], the IC50 was over 500 nM. For the same compound, in experiment [3], the “AKT1 E17K IC50: Selectivity vs AKT1 WT” value was 2.9, the “AKT1 E17K IC50: Selectivity vs AKT2” value was determined as 18 and the IC50 was under 100 nM.
In experiment [1], `CC(=O)Nc1c(C=O)ccc(CCNCc2ccc(-n3c(-c4cccnc4N)nc4ccc(-c5ccccc5)nc43)cc2)c1F` [Compound 90, N-(3-{2-[({4-[2-(2-aminopyridin-3-yl)-5-phenylimidazo[4,5-b]pyridin-3-yl]phenyl}methyl)amino]ethyl}-2-fluoro-6-formylphenyl)acetamide] returned a half-inhibitory concentration (IC50) of under 100 nM. Besides, in experiment [2], the IC50 is under 100 nM. For the same compound, in experiment [3], the “AKT1 E17K IC50: Selectivity vs AKT1 WT” value stood at 0.65, the “AKT1 E17K IC50: Selectivity vs AKT2” value was 1.6 and the IC50 was under 100 nM.

One may read the IC50 as the concentration at which inhibition is half-maximal.
